What all share (type): cell-based
Assay [1] concerns microfilariae of Dirofilaria immitis. In words: Dirofilaria immitis, Microfilaria (DiMf) In Vitro Assay. The note with it: Dirofilaria immitis, 72 h, read-out: DiMf MED, Minimum Effective Dose, D. immitis microfilariae motility, in vitro.
For assay [2], the system named is third stage larvae of Haemonchus contortus. Nature of the assay: Haemonchus contortus, Larvae Stage 3 (HcL3) In Vitro Assay. The note with it: Haemonchus contortus, 96 h.
For assay [3], the system named is D. immitis L4 larvae. Nature of the assay: Dirofilaria immitis, L4 Stage (DiL4) In Vitro Assay. The conditions noted are these: for minimal effective concentration: Dirofilaria immitis, 72 h, read-out: DiL4 MED, Minimum Effective Dose, D. immitis L4 larvae motility, in vitro; for DiMf/DiL4: larval stage selectivity, ratio of DiMf MED to DiL4 MED.
Where [4] appears, read: read-out: HcL3 MED, Haemonchus contortus third stage larvae in vitro, class mark appended to the Ex # in Table 3.
Where [5] appears, read: read-out: HcL3 MED, Minimum Effective Dose, H. contortus third stage larvae, approximately 96 hours.
The mark [6] stands for this setting: read-out: HcL3 MED, approximately 96 hours incubation, multiple-resistant field isolate.

SMILES strings stand for the structures. Read-outs that look alike come from different tables or passages of the source. Some results are limits rather than exact numbers.

As to `CC(C)C[C@H]1C(=O)O[C@H](Cc2ccc(Cc3cnccc3C#N)cc2)C(=O)N(C)[C@@H](CC(C)C)C(=O)O[C@H](C)C(=O)N(C)[C@@H](CC(C)C)C(=O)O[C@H](Cc2ccc(Cc3cnccc3C#N)cc2)C(=O)N(C)[C@@H](CC(C)C)C(=O)O[C@H](C)C(=O)N1C` [Example 3-307, 3,3′-(((((2R,5S,8R,11S,14R,17S,20R,23S)-5,11,17,23-tetraisobutyl-4,8,10,16,20,22-hexamethyl-3,6,9,12,15,18,21,24-octaoxo-1,7,13,19-tetraoxa-4,10,16,22-tetraazacyclotetracosane-2,14-diyl)bis(methylene))bis(4,1-phenylene))bis(methylene))diisonicotinonitrile], the minimal effective concentration in assay [1] was 0.0003 µM; in assay [2] (setting [4]), under 1 µM; in assay [2] (setting [5]), 1 µM; in assay [2] (setting [6]) it was at most 1 µM; in assay [3], 0.0001 µM. Moreover, in assay [3], the DiMf/DiL4 is listed as 3.

Turning to `CSc1ncccc1Cc1ccc(C[C@H]2OC(=O)[C@H](CC(C)C)N(C)C(=O)[C@@H](C)OC(=O)[C@H](CC(C)C)N(C)C(=O)[C@@H](Cc3ccc(Cc4cccnc4SC)cc3)OC(=O)[C@H](CC(C)C)N(C)C(=O)[C@@H](C)OC(=O)[C@H](CC(C)C)N(C)C2=O)cc1` [Example 3-308, (3S,6R,9S,12R,15S,18R,21S,24R)-3,9,15,21-tetraisobutyl-4,6,10,16,18,22-hexamethyl-12,24-bis(4-((2-(methylthio)pyridin-3-yl)methyl)benzyl)-1,7,13,19-tetraoxa-4,10,16,22-tetraazacyclotetracosan-2,5,8,11,14,17,20,23-octaone], the minimal effective concentration in assay [1] is 0.01 µM; in assay [2] (setting [4]), 1 to 3.3 µM; in assay [2] (setting [5]), 3.3 µM; in assay [3] it was 0.001 µM. Further, the DiMf/DiL4 in assay [3] was 10.

On to `Cc1cnccc1Cc1ccc(C[C@H]2OC(=O)[C@H](CC(C)C)N(C)C(=O)[C@@H](C)OC(=O)[C@H](CC(C)C)N(C)C(=O)[C@@H](Cc3ccc(Cc4ccncc4F)cc3)OC(=O)[C@H](CC(C)C)N(C)C(=O)[C@@H](C)OC(=O)[C@H](CC(C)C)N(C)C2=O)cc1` [Example 3-309, (3S,6R,9S,12R,15S,18R,21S,24R)-6-(4-((3-fluoropyridin-4-yl)methyl)benzyl)-3,9,15,21-tetraisobutyl-4,10,12,16,22,24-hexamethyl-18-(4-((3-methylpyridin-4-yl)methyl)benzyl)-1,7,13,19-tetraoxa-4,10,16,22-tetraazacyclotetracosan-2,5,8,11,14,17,20,23-octaone], for which the minimal effective concentration in assay [1] is 0.003 µM; in assay [2] (setting [4]), 1 to 3.3 µM; in assay [2] (setting [5]), 3.3 µM; in assay [3] it was 0.00055 µM. The DiMf/DiL4 in assay [3] worked out at 5.5.

In the case of `CCc1ncncc1Cc1ccc(C[C@H]2OC(=O)[C@H](CC(C)C)N(C)C(=O)[C@@H](C)OC(=O)[C@H](CC(C)C)N(C)C(=O)[C@@H](Cc3ccc(Cc4cncnc4CC)cc3)OC(=O)[C@H](CC(C)C)N(C)C(=O)[C@@H](C)OC(=O)[C@H](CC(C)C)N(C)C2=O)cc1` [Example 3-310, (3S,6R,9S,12R,15S,18R,21S,24R)-6,18-bis(4-((4-ethylpyrimidin-5-yl)methyl)benzyl)-3,9,15,21-tetraisobutyl-4,10,12,16,22,24-hexamethyl-1,7,13,19-tetraoxa-4,10,16,22-tetraazacyclotetracosan-2,5,8,11,14,17,20,23-octaone], the minimal effective concentration in assay [1] was 0.0003 µM; in assay [2] (setting [4]) it was under 1 µM; in assay [2] (setting [5]), 1 µM; in assay [2] (setting [6]), at most 1 µM; in assay [3], 0.001 µM. Further, the DiMf/DiL4 in assay [3] is listed as 0.3.

Take `CC(C)C[C@H]1C(=O)O[C@H](Cc2ccc(Cc3cccc(F)n3)cc2)C(=O)N(C)[C@@H](CC(C)C)C(=O)O[C@H](C)C(=O)N(C)[C@@H](CC(C)C)C(=O)O[C@H](Cc2ccc(Cc3cccc(F)n3)cc2)C(=O)N(C)[C@@H](CC(C)C)C(=O)O[C@H](C)C(=O)N1C` [Example 3-313, (3S,6R,9S,12R,15S,18R,21S,24R)-6,18-bis(4-((6-fluoropyridin-2-yl)methyl)benzyl)-3,9,15,21-tetraisobutyl-4,10,12,16,22,24-hexamethyl-1,7,13,19-tetraoxa-4,10,16,22-tetraazacyclotetracosan-2,5,8,11,14,17,20,23-octaone]: the minimal effective concentration in assay [1] came to 0.003 µM; in assay [2] (setting [5]), 0.55 µM; in assay [3] it was 0.00055 µM. In addition, the DiMf/DiL4 in assay [3] worked out at 5.5.

Consider `CC(C)C[C@H]1C(=O)O[C@H](Cc2ccc(Cc3cncnc3C(F)(F)F)cc2)C(=O)N(C)[C@@H](CC(C)C)C(=O)O[C@H](C)C(=O)N(C)[C@@H](CC(C)C)C(=O)O[C@H](Cc2ccc(Cc3cncnc3C(F)(F)F)cc2)C(=O)N(C)[C@@H](CC(C)C)C(=O)O[C@H](C)C(=O)N1C` [Example 3-318, (3S,6R,9S,12R,15S,18R,21S,24R)-3,9,15,21-tetraisobutyl-4,6,10,16,18,22-hexamethyl-12,24-bis(4-((4-(trifluoromethyl)pyrimidin-5-yl)methyl)benzyl)-1,7,13,19-tetraoxa-4,10,16,22-tetraazacyclotetracosan-2,5,8,11,14,17,20,23-octaone], for which the minimal effective concentration worked out at 0.0003 µM in assay [1], 0.55 µM in assay [2] (setting [5]) and 3e-05 µM in assay [3]. The DiMf/DiL4 in assay [3] turned out to be 10.

In the case of `CC(C)C[C@H]1C(=O)O[C@H](Cc2ccc(Cc3cccnc3Cl)cc2)C(=O)N(C)[C@@H](CC(C)C)C(=O)O[C@H](C)C(=O)N(C)[C@@H](CC(C)C)C(=O)O[C@H](Cc2ccc(Cc3cccnc3Cl)cc2)C(=O)N(C)[C@@H](CC(C)C)C(=O)O[C@H](C)C(=O)N1C` [Example 3-319, (3S,6R,9S,12R,15S,18R,21S,24R)-6,18-bis(4-((2-chloropyridin-3-yl)methyl)benzyl)-3,9,15,21-tetraisobutyl-4,10,12,16,22,24-hexamethyl-1,7,13,19-tetraoxa-4,10,16,22-tetraazacyclotetracosan-2,5,8,11,14,17,20,23-octaone], the minimal effective concentration in assay [1] is 0.00173 µM; in assay [2] (setting [4]) it was under 1 µM; in assay [2] (setting [5]) it was 0.55 µM; in assay [2] (setting [6]) it was at most 1 µM; in assay [3], 5.5e-05 µM. Moreover, the DiMf/DiL4 in assay [3] is recorded as 31.5.

On to `CC(C)C[C@H]1C(=O)O[C@H](Cc2ccc(Cc3cncnc3C(F)F)cc2)C(=O)N(C)[C@@H](CC(C)C)C(=O)O[C@H](C)C(=O)N(C)[C@@H](CC(C)C)C(=O)O[C@H](Cc2ccc(Cc3cncnc3C(F)F)cc2)C(=O)N(C)[C@@H](CC(C)C)C(=O)O[C@H](C)C(=O)N1C` [Example 3-321, (3S,6R,9S,12R,15S,18R,21S,24R)-6,18-bis(4-((4-(difluoromethyl)pyrimidin-5-yl)methyl)benzyl)-3,9,15,21-tetraisobutyl-4,10,12,16,22,24-hexamethyl-1,7,13,19-tetraoxa-4,10,16,22-tetraazacyclotetracosan-2,5,8,11,14,17,20,23-octaone], for which the minimal effective concentration is 5e-05 µM in assay [1]; under 1 µM in assay [2] (setting [4]); 0.3 µM in assay [2] (setting [5]); at most 1 µM in assay [2] (setting [6]); 2e-05 µM in assay [3]. Further, in assay [3], the DiMf/DiL4 is on record as 2.5.

As to `Cc1cc(F)ncc1Cc1ccc(C[C@H]2OC(=O)[C@H](CC(C)C)N(C)C(=O)[C@@H](C)OC(=O)[C@H](CC(C)C)N(C)C(=O)[C@@H](Cc3ccc(Cc4cnc(F)cc4C)cc3)OC(=O)[C@H](CC(C)C)N(C)C(=O)[C@@H](C)OC(=O)[C@H](CC(C)C)N(C)C2=O)cc1` [Example 3-322, (3S,6R,9S,12R,15S,18R,21S,24R)-6,18-bis(4-((6-fluoro-4-methylpyridin-3-yl)methyl)benzyl)-3,9,15,21-tetraisobutyl-4,10,12,16,22,24-hexamethyl-1,7,13,19-tetraoxa-4,10,16,22-tetraazacyclotetracosan-2,5,8,11,14,17,20,23-octaone], the minimal effective concentration in assay [1] came to 0.01 µM; in assay [2] (setting [5]), 10 µM; in assay [3], 0.0003 µM. The DiMf/DiL4 in assay [3] is 33.3.

Take `CC(C)C[C@H]1C(=O)O[C@H](Cc2ccc(Cc3cccnc3F)cc2)C(=O)N(C)[C@@H](CC(C)C)C(=O)O[C@H](C)C(=O)N(C)[C@@H](CC(C)C)C(=O)O[C@H](Cc2ccc(Cc3cccnc3F)cc2)C(=O)N(C)[C@@H](CC(C)C)C(=O)O[C@H](C)C(=O)N1C` [Example 3-323, (3S,6R,9S,12R,15S,18R,21S,24R)-6,18-bis(4-((2-fluoropyridin-3-yl)methyl)benzyl)-3,9,15,21-tetraisobutyl-4,10,12,16,22,24-hexamethyl-1,7,13,19-tetraoxa-4,10,16,22-tetraazacyclotetracosan-2,5,8,11,14,17,20,23-octaone]: the minimal effective concentration in assay [1] was 0.001 µM; in assay [2] (setting [4]), under 1 µM; in assay [2] (setting [5]), 0.3 µM; in assay [2] (setting [6]), at most 1 µM; in assay [3], 0.0001 µM. Further, the DiMf/DiL4 in assay [3] is 10.

Source of the values: patent US11771738B2 (Zoetis Services LLC, priority 2018, dated 2023).
